Measured values from the NIST ThermoML archive (doi:10.1016/j.fluid.2011.09.014).
± gives the expanded uncertainty stated by the source.

Columns and labels:
[1] = refractive index (Na D-line) (dimensionless); xn = mol fraction of the nth substance listed; details: 294.15 K; 101 kPa; Liquid; Standard Abbe refractometry; x2 = 0.75
[2] = xn = mol fraction of the nth substance listed; details: 293.15 K; 101 kPa; Liquid; Vibrating tube method; x2 = 0.75
[3] = Liquid; for mass density: 101.33 kPa, Vibrating tube method; for Normal boiling temperature: Closed cell (Static) method
[4] = refractive index (Na D-line) (dimensionless); details: 101.33 kPa, Liquid, Standard Abbe refractometry

| SMILES | refractive index [1] | mass density [2] | mass density ([3]; 298.15 K) | Normal boiling temperature [3] | refractive index ([4]; 293.15 K) | refractive index ([4]; 298.15 K) | mass density ([3]; 293.15 K) |
| --- | --- | --- | --- | --- | --- | --- | --- |
| CC(=O)CC(C)CC(C)C (configuration not stated) [4,6-dimethyl-2-heptanone] + CC(C)CC(=O)CC(C)C | 1.4118 ± 0.0005 | 806.5 ± 0.5 kg/m3 |  |  |  |  |  |
| CC(=O)O [acetic acid] |  |  | 1044.5 ± 0.6 kg/m3 | 117.90 ± 0.2 °C | 1.3721 ± 0.0004 |  |  |
| CC(C)OC(C)C [diisopropyl ether] |  |  | 719 ± 0.4 kg/m3 | 68.20 ± 0.2 °C |  | 1.3655 ± 0.0004 |  |
| O=CO [formic acid] |  |  |  | 100.90 ± 0.2 °C | 1.3711 ± 0.0006 |  | 1218.5 ± 1.4 kg/m3 |
| CCCCCOC(C)=O [pentyl ethanoate] |  |  |  | 149.10 ± 0.2 °C | 1.4025 ± 0.0006 |  | 875.9 ± 0.8 kg/m3 |
| CCC(=O)O [propanoic acid] |  |  | 988.1 ± 0.5 kg/m3 | 141.10 ± 0.2 °C | 1.3808 ± 0.0004 |  |  |
